Results from patent US11414379B2, “SPAK kinase inhibitors as neuroprotective agents” (United States Government as represented by the Department …, priority 2018, dated 2022).

Columns and labels:
[1] = biological target: T1, human SPAK 452-547(end) (Homo sapiens, UniProt Q9UEW8); experiment: Fluorescence polarization, SPAK-WNK peptide interaction; type: binding; settings: for IC50: Lumio-Green-labelled WNK peptide 10 nM, read-out: IC50, concentration-dependent decrease in fluorescence polarization; for disruption of binding between WNK4 and the SPAK CCT domain: fluorescence polarization
T1 construct: Purified human SPAK 452-547(end); made in house; host or cells: E. coli
Procedure: Fluorescence polarization measurements were performed at 25° C. with purified SPAK proteins in 50 mM Tris/HCl, pH 7.5, 150 mM NaCl and 2 mM DTT. The concentration of SPAK proteins was determined by measuring their absorbance at 280 nm and calculated using the molar absorption coefficient determined by the ProtParam Online tool (Gasteiger et al., 2001). All peptides ([…] [EP4543] and […] [EP4544]; SEQ ID NO:2 and SEQ ID NO:3, respectively) contained an N-terminal linker required for conjugating to the Lumio Green fluorophore ([…]; SEQ ID NO:4) and were initially re-suspended in 50 mM ammonium bicarbonate, pH 8. Peptide labelling was achieved by incubating […] of each peptide in a 0.5 ml reaction mixture of 20 μM Lumio Green in 25 mM Tris/HCl, pH 7.5, 200 mM NaCl and 5 mM 2-mercaptoethanol. Reactions were left to proceed in the dark for 2 h. The peptides were dialysed for 4 h into 25 mM Tris/HCl, pH 7.5, 200 mM NaCl and 5 mM 2-mercaptoethanol using a Micro DispoDIALYZER with a 100 Da molecular-mass cut-off (Harvard Apparatus), and then for another 12 h with changed buffer. For fluorescence polarization, mixtures were set up containing the indicated concentration of protein, 10 nM Lumio-Green-labelled peptide in a final volume of 30 μl. All individual bindings were performed in duplicate with at least 12 data points per curve. Fluorescence polarization was measured using a BMG PheraStar plate reader, with an excitation wavelength of 485 nm and an emission wavelength of 538 nm, and measurements were corrected to the fluorescent probe alone. Data analysis and graphing were then performed in GraphPad Prism7; a one-site specific binding model was assumed (Y=Bmax*X/[Kd+X]) and the fitted dissociation constant computed. All experimental bindings were repeated at least twice.
Referring to FIG. 5A, analysis of SPAK-WNK interaction by fluorescence polarization is shown. Purified human SPAK 452-547(end) and human SPAK 452-547 with L491A (equivalent to L502 in mouse) were diluted appropriately and mixed at a 1:1 volume ratio with 20 nM Lumino-Green-labelled WNK peptide (RFQV or AFQV) to the concentration stated in the Figure (with the final peptide concentration consistent at 10 nM), and fluorescent polarization measurements were made. Binding curves, assuming one-site-specific binding, were then generated with Prism6 using milli-polarization (mP) units.

[2] = system: KCC2 pThr1007 and NKCC1 pThr203/207/212; experiment: In vivo pharmacodynamic analysis, brain; set-up: species or system mouse; settings: naïve brains; 60 minutes after administration
Procedure: Male C57BL/6j wild-type mice (6 weeks old) were purchased from Charles River Laboratories Edinburgh UK. ZT-1a was dissolved in DMSO (Sigma) solution and administered by subcutaneous injection into wild type male C57BL/6 mice at doses of 0, 3, 10, 30, 50 and 100 mg/kg. 50 mg/kg Closantel (1) was injected as a comparative control. Age-matched SPAK^502A/502A knock-in mice were also used as comparative controls (Zhang et al. (2015) Human molecular genetics 24: 4545-455). Control mice were treated with an equal volume of DMSO solution. One hour after administration, mice were sacrificed by cervical dislocation, and kidney and brain tissues were rapidly dissected and snap-frozen in liquid nitrogen. The SPAK^502A/502A knock-in mouse was established and maintained under specific pathogen-free conditions at the University of Dundee (UK) as described in our recent study.
Referring to FIG. 9A and FIG. 9B, in vivo pharmacodynamic analysis of ZT-1a was performed. ZT-1a and Closantel were administered via subcutaneous injection at the indicated doses. Brain (FIG. 9A) and kidney (FIG. 9B) tissues were collected, and endogenous proteins were subjected to immunoblot probed with SPAK, NKCC1 and NCC phospho-specific antibodies.

[3] = system: mouse model of ischemic stroke; experiment: Infarct volume and hemispheric swelling after transient MCAO; type: in vivo
Source text: Under an operating microscope, the left common carotid artery was exposed through a midline incision. […] The ECA was dissected further distally and permanently ligated. The internal carotid artery (ICA) was isolated and carefully separated from the adjacent vagus nerve. A 12 mm length of silicon-coated nylon filament (size 6-0, native diameter 0.11 mm; diameter with coating 0.21+/−0.02 mm; coating length 5-6 mm; Doccol Corporation, Sharon, Mass.) was introduced into the ECA lumen through a puncture. The silk suture around the ECA stump was tightened around the intraluminal nylon suture to prevent bleeding. The nylon suture was then gently advanced from the ECA to the ICA lumen until mild resistance was felt (˜9 mm). For reperfusion, the suture was withdrawn 50 min after MCAO to restore blood flow. Body temperature was maintained for the duration of the experiment between 36.5° C.-37° C. with a small animal heating pad (Kent Scientific).
At 24 hours reperfusion, mice were anesthetized with 5% isoflurane and then decapitated. Coronal brain tissue slices (2 mm) were stained for 20 minutes at 37° C. with 1% 2,3,5-triphenyltetrazolium chloride monohydrate (TTC; Sigma, St Louis, Mo.) in PBS solution. […] The extent of hemispheric swelling was calculated using the following equation: swelling (% contralateral side)=[(volume of ipsilateral hemisphere−volume of contralateral hemisphere)/volume of contralateral hemisphere]×100 (Bhuiyan et al. (2017) Journal of cerebral blood flow and metabolism: official journal of the International Society of Cerebral Blood Flow and Metabolism 37: 2780-2794).
Referring to FIG. 11A, an experimental design of ischemic stroke study is shown. Vehicle or ZT-1a is administered at 3 hrs and 8 hrs post-MCAO.
Referring to FIG. 11B, representative images and quantification of infarct volume and hemispheric swelling in TTC-stained coronal sections of mouse brains 24 hrs post-MCAO are shown. Vehicle (DMSO, 2 ml/kg) or ZT-1a (2.5 or 5.0 mg/kg) were administered with an initial half dose at 3 hrs and the second half dose at 8 hr reperfusion via intra-peritoneal injection (i.p.). Data are mean±SD, n=6-12 per group (male). * p<0.05.

[4] = biological target: T2, SPAK-WNK1 interaction (Homo sapiens, UniProt Q9UEW8); experiment: Co-immunoprecipitation of WNK1 with SPAK from HEK293 cell lysates; type: binding; settings: 30 min on ice
T2 construct: Non-transfected HEK293 cell lysates; endogenous in cells; host or cells: HEK293 (non-transfected) lysate
Source text: Referring to FIG. 6, evidence that SPAK associates with WNK1, and interaction is disrupted by SPAK CCT mutation is shown. […] Immunoprecipitates were subjected to immunoblot probed with antibody to total WNK1 and antibody to total SPAK.

SMILES	IC50 [1] [µM]	disruption of binding between WNK4 and the SPAK CCT domain [1]	effect on KCC2 (pThr1007) or NKCC1 (pThr203/207/212) phosphorylation [2]	infarct volume ([3]; 5 mg/kg i.p., post-stroke from 3 hr reperfusion, 24 hrs post-MCAO, mean±SD) [mm^3]	decrease of infarct volume ([3]; 5 mg/kg i.p., post-stroke from 3 hr reperfusion, 24 hrs post-MCAO, vs vehicle) [%]	reduction of cerebral hemispheric swelling ([3]; 2.5 or 5 mg/kg, 24 hrs post-MCAO, vs vehicle) [%]	co-immunoprecipitation of WNK1 with SPAK [4]	effect on infarct volume and hemispheric swelling ([3]; 0.1 mg/kg dose)	effect on infarct volume and hemispheric swelling ([3]; 1.0 or 2.5 mg/kg at 3 hr and at 8 hr reperfusion)
Cc1cc(C(C#N)c2ccc(Cl)cc2)c(Cl)cc1NC(=O)c1cc(Cl)ccc1O (stereo not drawn) [ZT-1a, 5-chloro-N-(5-chloro-4-((4-chlorophenyl)(cyano)methyl)-2-methylphenyl)-2-hydroxy-benzamide]	326	did not disrupt	neither drug reduced	50.4±27.0	~35	36 to 50	potently abolished	–	–
Cc1cc(C(C#N)c2ccc(Cl)cc2)c(Cl)cc1NC(=O)c1cc(I)cc(I)c1O (stereo not drawn) [Closantel]	> 1000	did not disrupt	neither drug reduced	–	–	–	–	ineffective	dose-dependently reduced
